# According to patent US20080319078A1, “Triphenylethylene Compounds Useful as Selective Estrogen Receptor Modulators” (priority 2005, published 2008):
smiles,measurement,value
"CCC(=C(c1ccc(O)cc1)c1ccc(O)cc1)c1ccc(OCC(=O)O)c(OC)c1 [Example 4, {[4-[1-Ethyl-2,2-bis(4-hydroxyphenyl)ethenyl]-2-(methyloxy)phenyl]oxy}acetic acid]",melting point,253 to 254 °C
